Holding throughout (assay): growth of human tumour cells (NCI), 48 h
The subject of test [1] is K-562 leukemia.
For test [2], the system named is IGROV1 ovarian.
In test [3] the test system is SF-295 CNS.
For test [4], the system named is SK-OV-3 ovarian.
Test [5] concerns HT29 colon.
Test [6] relates to KM12 colon.
The subject of test [7] is U251 CNS.
The test system of test [8] is UO-31 renal.
The test system of test [9] is CAKI-1 renal.
In test [10] the test system is LOX IMVI melanoma.

“And” between values parts separate entries of the source, which are not always exact repeats. Equal entries are not always repeated.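 Tested at 5 concentrations; 48 h exposure; 96-well plates; endpoints linearly interpolated, else capped at highest concentration. Here, GI50 denotes the concentration required for 50% inhibition of growth. TGI is the concentration that stops growth completely.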 A value given as a limit tells only on which side of the number the result lay.

For `COC(=O)Nc1nc2c(OC)c(OC)c(OC)cc2[nH]1`, the GI50 in test [1] was 5.43 µM; in test [2] it was 22.1 µM; in [3], 27.9 µM; in test [4] it was 30.8 µM; in [5], 4.63 µM; in [6], 5.48 µM. Moreover, the GI50 in test [7] is 21.1 µM; in test [8] it was 36.4 µM; in [9], 15.7 µM; in test [10], 49 µM. Besides, the TGI was more than 100 µM in test [1]; more than 100 µM in test [2]; more than 100 µM in test [3]; more than 100 µM in [4]; more than 97.1 µM in [5]; more than 100 µM in [6]. Moreover, the TGI in [7], in [8], in [9] and in test [10] was more than 100 µM throughout.
As for `O=C(Cc1ccccc1)Nc1nnc(CCSCCc2nnc(NC(=O)Cc3ccccc3)s2)s1`, the GI50 in test [1] is 1.34 µM; in [2] it was 25.9 µM; in test [3], 4.38 µM; in [4] it was 18.7 µM; in test [5], more than 100 µM; in [6], 4.61 µM. The GI50 in test [7] was 4.1 µM; in test [8], 81.8 µM; in test [9], 11.7 µM; in test [10], 1.72 µM. The TGI in test [1] is more than 100 µM; in test [2], more than 100 µM; in test [3] it was 36.6 µM; in test [4], 71.3 µM; in test [5] it was more than 100 µM; in test [6], more than 100 µM. Moreover, the TGI in [7] was 18.3 µM; in test [8], more than 100 µM; in test [9], 66 µM; in test [10], 11.1 µM.
On to `OC(COc1ccc(Cl)cc1Cl)CN1CCCC1` (stereo unspecified), for which the TGI in [1] was more than 100 µM; in test [2], more than 100 µM; in test [3] it was more than 100 µM; in [4], more than 100 µM; in [5], 69.9 µM; in test [6] it was more than 100 µM. Besides, the TGI in test [7], in test [8], in [9] and in test [10] was more than 100 µM each time.
Regarding `CC1(C)CCc2cc3c(cc2O1)OC(C)(C)C1c2c(ccc4c2CCC(C)(C)O4)OC31` (stereo unspecified), the TGI in test [1], in [2], in test [3], in test [4], in test [5] and in test [6] was more than 100 µM throughout. For the same compound, the TGI in test [7], in test [8], in test [9] and in test [10] was more than 100 µM throughout.
As to `NC1=CC(=O)C(=O)c2cccnc21`, the GI50 in test [1] is 3.03 µM; in test [2], 7.91 µM; in test [3] it was 2.48 µM; in test [4] it was 18.8 µM; in test [5], 15.1 µM; in test [6] it was 12 µM. Moreover, the GI50 is 3.92 µM in test [7], 2.48 µM in test [8], 8.45 µM in test [9] and 1.7 µM in test [10]. Also, the TGI is 10.6 µM in test [1]; 23.1 µM in test [2]; 10.3 µM in [3]; 41.2 µM in [4]; 38.7 µM in [5]; 25.8 µM in test [6]. Besides, the TGI in test [7] amounted to 15.4 µM; in [8], 17.7 µM; in test [9], 31.2 µM; in [10], 4.38 µM.
Turning to `Clc1ccccc1-c1nc2ccccc2[nH]1`, the GI50 in [1] is 80.2 µM; in [2] it was 91.7 µM; in test [3], 43.3 µM; in [4], more than 100 µM; in [5], more than 100 µM; in [6], 85.2 µM. Besides, the GI50 in test [7] is more than 100 µM; in test [8], 90.8 µM; in test [9], more than 100 µM; in test [10], more than 100 µM. The TGI in [1], in test [2], in test [3], in test [4], in test [5] and in test [6] was more than 100 µM throughout. In addition, the TGI in test [7], in test [8], in test [9] and in test [10] was more than 100 µM in each case.
As for `O=C(CCCn1ccnc1[N+](=O)[O-])NCCn1cnc([N+](=O)[O-])c1`, the TGI in test [1], in test [2], in test [3], in [4], in test [5] and in test [6] was more than 100 µM in each case. Also, the TGI in test [7], in [8], in test [9] and in [10] was more than 100 µM throughout.
With `COc1ccc(S(=O)(=O)O)cc1NS(=O)(=O)c1ccc(C)cc1`, the TGI in test [1], in test [2], in [3], in test [4], in test [5] and in [6] was more than 100 µM each time. Moreover, the TGI in test [7], in [8], in test [9] and in test [10] was more than 100 µM each time.
For `CC(C)(C)c1ccc(C(=O)N/N=C/c2ccc(O)cc2O)cc1`, the GI50 in test [1] is 0.476 µM; in test [2], 0.411 µM; in [3], 0.327 µM; in [4], 0.589 µM; in test [5], 0.885 µM; in test [6] it was 0.418 µM. The GI50 is 0.483 µM in test [7], 0.24 µM in test [8], 0.342 µM in test [9] and 0.224 µM in [10]. Moreover, the TGI in test [1] came out at 20.1 µM; in test [2], 12.4 µM; in test [3], 3.22 µM; in [4], 14.7 µM; in [5] it was 8.33 µM; in test [6], 2.48 µM. For the same compound, the TGI amounted to 14.9 µM in [7], 2.28 µM in [8], 1.99 µM in test [9] and 0.975 µM in test [10].
For `COC(=O)[C@]12CC[C@@H](C)[C@H](C)[C@@H]1C1=CC[C@@H]3[C@@]4(C)C(c5ncon5)=C[C@@](C)(CO)C4=CC[C@@]3(C)[C@]1(C)CC2`, the GI50 is 2.22 µM in test [1]; 2.47 µM in test [2]; 2.11 µM in test [3]; 4.49 µM in test [4]; 1.94 µM in test [5]; 1.98 µM in [6]. Also, the GI50 in test [7] is 2.02 µM; in test [8] it was 1.69 µM; in test [9], 4.06 µM; in test [10], 1.62 µM. Besides, the TGI was 4.82 µM in test [1]; 7.19 µM in test [2]; 5.03 µM in test [3]; 15.5 µM in test [4]; 3.88 µM in test [5]; 3.99 µM in [6]. Also, the TGI in [7] was found to be 3.84 µM; in test [8], 3.2 µM; in test [9], 26 µM; in test [10] it was 2.97 µM.
On to `Cc1cc2nc3ccc(N=Nc4ccc(N(C)C)cc4)cc3n(-c3ccccc3)c-2cc1=N`, for which the GI50 is 0.00686 µM in test [1]; 0.0221 µM and 0.0328 µM in test [2]; 0.0154 µM and 0.0314 µM in [3]; 0.0305 µM in test [4]; 0.0497 µM in test [5]; 0.0174 µM in [6]. Also, the GI50 in test [7] was 0.0183 µM; in [8], 0.0333 µM; in test [9], 0.0369 µM; in test [10], 0.0259 µM. The TGI in [4] is 0.187 µM; in test [5], 1.15 µM; in test [6], 0.116 µM; in [7], 0.114 µM; in test [8], 0.82 µM; in [9], 1.07 µM. For the same compound, the TGI in test [10] amounted to 0.117 µM.
Consider `COc1cc2ccc(CC#N)cc2cc1OC`, for which the TGI in [1], in [3], in [4], in test [5], in [6] and in test [7] was more than 100 µM throughout. Moreover, the TGI in [8], in [9] and in [10] was more than 100 µM in each case.
For `CC(=O)OC1CCC2(C)C(CCC3C2CCC2(C)C(C4=CC(=O)OC4)CCC32)C1` (stereo unspecified), the GI50 in test [1] is 2.02 µM; in test [2] it was 16.9 µM; in test [4] it was 19.9 µM; in [5], 13.1 µM; in test [6] it was 22.2 µM; in [8], 16.1 µM. In addition, the GI50 in test [9] was 11.2 µM; in test [10] it was 0.42 µM. Further, the TGI in [1] was 5.27 µM; in test [2], 53.2 µM; in [4] it was 49 µM; in test [5] it was 75.6 µM; in test [6] it was more than 100 µM; in test [8], 49.9 µM. Moreover, the TGI in test [9] was 33.1 µM; in test [10] it was more than 100 µM.
Turning to `O=C1C[C@@H](c2ccccc2)NCCCCN(O)CCCN1`, the TGI in test [2], in test [3], in test [4], in test [5], in [6] and in test [7] was more than 100 µM in each case. Moreover, the TGI in test [8], in [9] and in test [10] was more than 100 µM in each case.

Source of the values: PubChem BioAssay (NCI).
